Test results as given in patent US6512000B1, “Aminocarbonyl-substituted benzimidazoles having tryptase-inhibitory activity” (Boehringer Ingelheim Pharma KG, priority 1999, dated 2003).
pIC50: −log10 of the molar value.

target: T1, rh beta tryptase (Homo sapiens, UniProt P20231); assay: Tryptase inhibition test (cleavage of N-p-tosyl-Gly-Pro-Lys-para-nitroaniline, p-nitroaniline measured at 405 nm); assay type: biochemical; settings: concentration at which 50% of the tryptase enzyme activity is inhibited; substrate 0.6 mM, pH 7.4, 37° C.
T1 construct: purchased Promega
How it was run: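 Screening at 10 μM gives percent inhibition, with IC50 derived for compounds above 70% inhibition. Enzyme: rh beta tryptase, 0.91 U/ml, pH 7.4 Tris HCl (100 mM), 5 mM Ca, 100 mg/ml heparin. After 5 min compound pre-incubation, 0.6 mM pNA substrate cleaved 5 min at 37 °C, monitored at 405 nm.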

T1 sequence (P20231 31-275): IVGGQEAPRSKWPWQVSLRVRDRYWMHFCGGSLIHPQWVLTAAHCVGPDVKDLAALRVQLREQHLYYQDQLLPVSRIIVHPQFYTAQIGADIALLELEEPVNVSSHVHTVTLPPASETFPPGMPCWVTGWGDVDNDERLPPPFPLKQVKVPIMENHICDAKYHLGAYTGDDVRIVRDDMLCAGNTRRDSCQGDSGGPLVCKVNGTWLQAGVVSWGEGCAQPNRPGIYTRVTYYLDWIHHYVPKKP

| pIC50 | Molecule |
| --- | --- |
| 6.34 | CCOCCCn1c(CCc2ccc(C(=N)N)cc2)nc2cc(C(=O)N(Cc3ccc(CN)cc3)Cc3cccc(C(F)(F)F)c3)ccc21 [Example 198, 2-[2-(4-amidinophenyl)ethyl]-1-(3-ethoxypropyl)-benzimidazol-5-yl-carboxylic acid-N-[4-(amino-methyl)-benzyl]-N-(3-trifluoromethylbenzyl)-amide] |
| 6.46 | CCOCCCn1c(CCc2ccc(C(=N)N)cc2)nc2cc(C(=O)N(CCN)Cc3ccccc3)ccc21 [Example 294, 2-[2-(4-amidinophenyl)ethyl]-1-(3-ethoxypropyl)-benzimidazol-5-yl-carboxylic acid-N-(2-aminoethyl)-N-benzyl-amide] |
| 6.18 | CN(C)CCN(C)C(=O)c1ccc2c(c1)nc(CCc1ccc(C(=N)N)cc1)n2C [Example 3, 2-[2-(4-Amidinophenyl)-ethyl]1l-methyl-benzimidazol-5-yl-carboxylic Acid-N-[2-(N,N-dimethylamino)-ethyl]-N-methyl-amide-dihydrochlonide] |

same assay, conditions: inhibition of rh beta tryptase at 10 μM test substance; substrate N-p-tosyl-Gly-Pro-Lys-para-nitroaniline 0.6 mM, pH 7.4, 37° C., 5 minutes

| inhibition at 10 µM [%] | % Inhibition (10 μM) [%] | Molecule |
| --- | --- | --- |
| 63 | – | CCOCCCn1c(CCc2ccc(C(=N)N)cc2)nc2cc(C(=O)N(Cc3ccc(CN)cc3)Cc3cccc(C(F)(F)F)c3)ccc21 [Example 198, 2-[2-(4-amidinophenyl)ethyl]-1-(3-ethoxypropyl)-benzimidazol-5-yl-carboxylic acid-N-[4-(amino-methyl)-benzyl]-N-(3-trifluoromethylbenzyl)-amide] |
| 69 | – | CCOCCCn1c(CCc2ccc(C(=N)N)cc2)nc2cc(C(=O)N(CCN)Cc3ccccc3)ccc21 [Example 294, 2-[2-(4-amidinophenyl)ethyl]-1-(3-ethoxypropyl)-benzimidazol-5-yl-carboxylic acid-N-(2-aminoethyl)-N-benzyl-amide] |
| – | 52 | N=C(N)c1ccc(CCc2nc3cc(C(=O)N(CCN)Cc4ccc(Cl)cc4)ccc3n2CC2CC2)cc1 [Example 378, 2-[2-(4-amidinophenyl)ethyl]-1-cyclopropylmethyl-benzimidazol-5-yl-carboxylic acid-N-(2-aminoethyl)-N-(4-chlorbenzyl)-amide] |
| 52 | – | CCCCN(CCCC)CCCn1c(CCc2ccc(C(=N)N)cc2)nc2cc(C(=O)N(CCCc3ccccc3)Cc3ccc(CN)cc3)ccc21 [Example 167, 2-[2-(4-amidinophenyl)ethyl]-1-(3-di-n-butylaminopropyl) benzimidazol-5-yl-carboxylic acid-N-[4-(amino-methyl)-benzyl]-N-(3-phenylpropyl)-amide] |

More lines, now with the values behind:

| Molecule | inhibition at 10 µM [%] | % Inhibition (10 μM) [%] |
| --- | --- | --- |
| COc1cccc(CN(Cc2ccc(CN)cc2)C(=O)c2ccc3c(c2)nc(CCc2ccc(C(=N)N)cc2)n3CC2CCCO2)c1 (stereo not shown) [Example 82, 2-[2-(4-amidinophenyl)ethyl]-1-(tetrahydrofuran-2-yl-methyl)-benzimidazol-5-yl-carboxylic acid-N-[4-(amino-methyl)-benzyl]-N-(3-methoxybenzyl)-amide] | 61 | – |
| N=C(N)c1ccc(CCc2nc3cc(C(=O)N(Cc4ccc(CN)cc4)CC4CCCCC4)ccc3n2CCCNC(=O)Cc2ccccc2)cc1 [Example 152, 2-[2-(4-amidinophenyl)ethyl]-1-[3-(benzylcarbonylamino)-propyl]-benzimidazol-5-yl-carboxylic acid-N-[4-(amino-methyl)-benzyl]-N-cyclohexylmethyl-amide] | 65 | – |
| 2-[2-(4-amidinophenyl)ethyl]-1-(tetrahydrofuran-2-yl-methyl)-benzimidazol-5-yl-carboxylic acid-N-(2-aminoethyl)-N-(2-pyridyl)-amide [Example 322] | – | 51 |
| N=C(N)c1ccc(CCc2nc3cc(C(=O)N(Cc4ccc(Cl)cc4)Cc4ccc(CN)cc4)ccc3n2CC2CC2)cc1 [Example 186, 2-[2-(4-amidinophenyl)ethyl]-1-cyclopropylmethyl-benzimidazol-5-yl-carboxylic acid-N-[4-(amino-methyl)-benzyl]-N-(4-chlorbenzyl)-amide] | – | 60 |
| N=C(N)c1ccc(CCc2nc3cc(C(=O)N(CCN)CC4CCCCC4)ccc3n2Cc2cccs2)cc1 [Example 355, 2-[2-(4-amidinophenyl)ethyl]-1-(2-thiophenyl-methyl)-benzimidazol-5-yl-carboxylic acid-N-(2-aminoethyl)-N-cyclohexylmethyl-amide] | 51 | – |
| COc1cccc(CN(Cc2ccc(CN)cc2)C(=O)c2ccc3c(c2)nc(CCc2ccc(C(=N)N)cc2)n3CCc2ccc(Cl)cc2)c1 [Example 76, 2-[2-(4-amidinophenyl)ethyl]-1-[2-(4-chlorophenyl)ethyl]-benzimidazol-5-yl-carboxylic acid-N-[4-(amino-methyl)-benzyl]-N-(3-methoxybenzyl)-amide] | 58 | – |
